Test results: ChEMBL document CHEMBL5608163, “Structure modification of anoplin for fighting resistant bacteria” (Eur J Med Chem, 2024)
Converted amounts (≈) assume the structure as drawn. Square brackets hold non-standard residues; d marks the D form. Peptide text beside a SMILES is read from it. * marks the point of attachment. Heptadecanoyl = CCCCCCCCCCCCCCCCC(=O)*; Tridecanoyl = CCCCCCCCCCCCC(=O)*; hIle = CC[C@H](C)C[C@H](N)C(=O)O; Cha = N[C@@H](CC1CCCCC1)C(=O)O; Undecanoyl = CCCCCCCCCCC(=O)*; Nonanoyl = CCCCCCCCC(=O)*

Legend:
[1] = test system: Staphylococcus aureus; experiment: Antimicrobial activity against Staphylococcus aureus ATCC 25923 assessed as reduction in microbial growth incubated for 18 to 20 hrs by Mueller-Hinton broth based microdilution method; assay type: functional; conditions: time 18-20 hrs
[2] = test system: Enterococcus faecium; experiment: Antimicrobial activity against Enterococcus faecium assessed as reduction in microbial growth incubated for 18 to 20 hrs by Mueller-Hinton broth based microdilution method; assay type: functional; conditions: time 18-20 hrs
[3] = test system: Escherichia coli; experiment: Antibacterial activity against Escherichia coli ATCC 25922 assessed as bacterial growth inhibition incubate for 18 to 20 hrs by MH broth based assay; assay type: functional; conditions: time 18-20 hrs
[4] = Hemolytic activity in mouse RBC incubated for 1 hr; assay type: toxicity, cell-based, Erythrocyte; conditions: red blood cells
[5] = Hemolytic activity in human RBC; assay type: toxicity, cell-based, Erythrocyte; conditions: red blood cells
[6] = test system: Pseudomonas aeruginosa; experiment: Antibacterial activity against Pseudomonas aeruginosa assessed as reduction in bacterial growth incubated for 20 hrs by broth microdilution assay; assay type: functional
[7] = test system: Escherichia coli; experiment: Antibacterial activity against Escherichia coli assessed as reduction in bacterial growth incubated for 20 hrs by broth microdilution assay; assay type: functional
[8] = Hemolytic activity against Red blood cells (unknown origin) incubated for 1 hr by spectrophotometric analysis; assay type: toxicity, cell-based, Erythrocyte
[9] = test system: Bacillus subtilis; experiment: Antibacterial activity against Bacillus subtilis assessed as reduction in bacterial growth incubated for 20 hrs by broth microdilution assay; assay type: functional
[10] = test system: Staphylococcus aureus; experiment: Antibacterial activity against Staphylococcus aureus assessed as bacterial growth inhibition incubated for 20 hrs by broth microdilution assay; assay type: functional
[11] = Hemolytic activity in human erythrocytes; assay type: toxicity, cell-based, Erythrocyte
[12] = test system: Pseudomonas aeruginosa; experiment: Antibacterial activity against Pseudomonas aeruginosa PAO1 assessed as reduction in bacterial growth; assay type: functional
[13] = test system: Mycolicibacterium smegmatis; experiment: Antimycobacterial activity against Mycobacterium smegmatis mc2 155 assessed as reduction in bacterial cell growth incubated for 48 hrs by resazurin dye based assay; assay type: functional
[14] = test system: Bacillus subtilis; experiment: Antibacterial activity against Bacillus subtilis assessed as reduction in bacterial growth; assay type: functional
[15] = test system: Zymomonas mobilis; experiment: Antibacterial activity against Zymomonas mobilis ATCC 10988 assessed as reduction in bacterial growth; assay type: functional
[16] = test system: Escherichia coli; experiment: Antibacterial activity against Escherichia coli DH5a assessed as reduction in bacterial growth; assay type: functional
[17] = test system: Bacillus subtilis; experiment: Antimicrobial activity against Bacillus subtilis ATCC 23857 assessed as reduction in microbial growth incubated for 18 to 20 hrs by Mueller-Hinton broth based microdilution method; assay type: functional; conditions: time 18-20 hrs
[18] = test system: Zymomonas mobilis; experiment: Antibacterial activity against Zymomonas mobilis ATCC 10988 assessed as bacterial growth inhibition; assay type: functional
[19] = test system: Escherichia coli; experiment: Antibacterial activity against Escherichia coli DH5a assessed as bacterial growth inhibition; assay type: functional
[20] = Hemolytic activity in human erythrocytes measured after 1 hrs by microplate reader analysis; assay type: toxicity, cell-based, Erythrocyte
[21] = test system: Mycolicibacterium smegmatis; experiment: Antibacterial activity against Mycobacterium smegmatis mc2 155 assessed as bacterial growth inhibition; assay type: functional
[22] = test system: Pseudomonas aeruginosa; experiment: Antibacterial activity against Pseudomonas aeruginosa PAO1 assessed as bacterial growth inhibition; assay type: functional
[23] = test system: Bacillus subtilis; experiment: Antibacterial activity against Bacillus subtilis assessed as bacterial growth inhibition; assay type: functional
[24] = test system: Staphylococcus aureus; experiment: Antibacterial activity against Staphylococcus aureus ATCC 25923 assessed as reduction in bacterial growth incubated for 48 hrs by Mueller-Hinton broth based microdilution method; assay type: functional
[25] = test system: Escherichia coli; experiment: Antibacterial activity against Escherichia coli ATCC 25922 assessed as reduction in bacterial growth incubated for 48 hrs by Mueller-Hinton broth based microdilution method; assay type: functional
[26] = Hemolytic activity in human erythrocyte incubated for 1 hr; assay type: toxicity, cell-based; conditions: erythrocytes

Row | SMILES | MIC [1] [µM] | MIC [2] [µM] | MIC [3] [µM] | HC50 at 1 h [4] [µM] | HC50 [5] [µM] | MIC [6] [µM] | MIC [7] [µM] | HC50 at 1 h [8] [µM] | MIC [9] [µM] | MIC [10] [µM] | HC50 [11] [µM] | MIC [12] [µM] | MIC [13] [µM] | MIC [14] [µM] | MIC [15] [µM] | MIC [16] [µM] | other results
1 | CC[C@H](C)C[C@H](NC(=O)[C@H](CCCNC(=N)N)NC(=O)[C@H](CCCCN)NC(=O)[C@H](CC(C)C)NC(=O)[C@H](CC1CCCCC1)NC(=O)CN)C(=O)N[C@@H](CCCCN)C(=O)N[C@H](C(=O)N[C@@H](CC(C)C)C(=O)N[C@@H](CC1CCCCC1)C(N)=O)[C@@H](C)O (H-G[Cha]LKR[hIle]KTL[Cha]-NH2) | 5.3 | 3.2 | 6.25 (≈ 7.8 µg/mL) | 31.2 | 31.2 |  |  |  |  |  |  |  |  |  |  |  | 
2 | CC[C@H](C)[C@H](NC(=O)[C@H](CCCCN)NC(=O)[C@H](CCCCN)NC(=O)[C@H](C)NC(=O)[C@H](CC(C)C)NC(=O)[C@H](C)NC(=O)[C@H](C)NC(=O)[C@H](CC(C)C)NC(=O)[C@H](C)NC(=O)[C@H](CCCCN)NC(=O)[C@H](CC(C)C)NC(=O)[C@H](CC(N)=O)NC(=O)[C@@H](NC(=O)[C@@H]1CCCN1C(=O)[C@H](CC(C)C)NC(=O)[C@H](CC(C)C)NC(=O)[C@@H](NC(=O)[C@H](CCCCN)NC(=O)[C@@H](NC(=O)[C@H](CCCNC(=N)N)NC(=O)[C@H](CCCCN)NC(=O)[C@H](CC(C)C)NC(=O)[C@H](CC(C)C)NC(=O)CN)[C@@H](C)CC)[C@@H](C)O)[C@@H](C)CC)C(=O)N[C@@H](CC(C)C)C(N)=O (H-GLLKRIKTLLPINLKALAALAKKIL-NH2) |  |  |  |  |  | 2 (≈ 5.43 µg/mL) | 2 (≈ 5.43 µg/mL) | 83.8 | 2 (≈ 5.43 µg/mL) | 4 (≈ 10.9 µg/mL) |  |  |  |  |  |  | 
3 | CCCCCCCCCCCCC(=O)NCC(=O)N[C@@H](CC(C)C)C(=O)N[C@@H](CC(C)C)C(=O)N[C@@H](CCCCN)C(=O)N[C@@H](Cc1ccccc1)C(=O)N[C@H](C(=O)N[C@@H](CCCCN)C(=O)N[C@@H](CCCCN)C(=O)N[C@@H](CC(C)C)C(=O)N[C@@H](CC(C)C)C(N)=O)[C@@H](C)CC (Tridecanoyl-GLLKFIKKLL-NH2) |  |  |  |  |  |  |  |  |  |  | < 370 | 3.69 (≈ 5.05 µg/mL) | 3.69 (≈ 5.05 µg/mL) | 8 (≈ 10.9 µg/mL) | 22.1 (≈ 30.3 µg/mL) | 22.1 (≈ 30.3 µg/mL) | 
4 | CC(C)C[C@H](NC(=O)[C@H](CC(C)C)NC(=O)[C@H](CCCCN)NC(=O)[C@H](CCCCN)NC(=O)[C@H](Cc1c[nH]c2ccccc12)NC(=O)[C@H](CCCNC(=N)N)NC(=O)[C@H](CCCCN)NC(=O)[C@H](CC(C)C)NC(=O)[C@H](CC(C)C)NC(=O)[C@@H](N)Cc1c[nH]c2ccccc12)C(N)=O | 32 | 16 | 64 (≈ 88.5 µg/mL) | > 200 | > 200 |  |  |  |  |  |  |  |  |  |  |  | MIC [17]: 16 µM
5 | CCCCCCCCCCC(=O)NCC(=O)N[C@@H](CC(C)C)C(=O)N[C@@H](CC(C)C)C(=O)N[C@@H](CCCCN)C(=O)N[C@@H](Cc1ccccc1)C(=O)N[C@H](C(=O)N[C@@H](CCCCN)C(=O)N[C@@H](CCCCN)C(=O)N[C@@H](CC(C)C)C(=O)N[C@@H](CC(C)C)C(N)=O)[C@@H](C)CC (Undecanoyl-GLLKFIKKLL-NH2) |  |  |  |  |  |  |  |  |  |  | < 377 | 3.77 (≈ 5.05 µg/mL) | 3.77 (≈ 5.05 µg/mL) | 8 (≈ 10.7 µg/mL) | 3.77 (≈ 5.05 µg/mL) | 22.6 (≈ 30.3 µg/mL) | MIC [18]: 12.7 µM (≈ 17 µg/mL); MIC [19]: > 170 µM; HC50 at 1 h [20]: 148 µM; MIC [21]: > 168 µM; MIC [22]: 33.9 µM (≈ 45.4 µg/mL); MIC [23]: > 170 µM
6 | CC(C)C[C@H](NC(=O)[C@H](CC(C)C)NC(=O)[C@H](CCCCN)NC(=O)[C@H](CCCCN)NC(=O)[C@H](Cc1c[nH]c2ccccc12)NC(=O)[C@H](Cc1c[nH]c2ccccc12)NC(=O)[C@H](CCCCN)NC(=O)[C@H](CC(C)C)NC(=O)[C@H](CC(C)C)NC(=O)[C@@H](N)CCCCN)C(N)=O (H-KLLKWWKKLL-NH2) | 16 | 8 | 16 (≈ 21.7 µg/mL) | > 200 | > 200 |  |  |  |  |  |  |  |  |  |  |  | MIC [17]: 8 µM
7 | CC[C@H](C)[C@H](NC(=O)[C@H](CCCCN)NC(=O)[C@H](CCCCN)NC(=O)[C@H](C)NC(=O)[C@H](CC(C)C)NC(=O)[C@H](C)NC(=O)[C@H](C)NC(=O)[C@H](CC(C)C)NC(=O)[C@H](C)NC(=O)[C@H](CCCCN)NC(=O)[C@H](CC(C)C)NC(=O)[C@H](CC(N)=O)NC(=O)[C@@H](NC(=O)[C@H](CC(C)C)NC(=O)[C@H](CC(C)C)NC(=O)[C@H](CC(C)C)NC(=O)[C@@H](NC(=O)[C@H](CCCCN)NC(=O)[C@@H](NC(=O)[C@H](CCCNC(=N)N)NC(=O)[C@H](CCCCN)NC(=O)[C@H](CC(C)C)NC(=O)[C@H](CC(C)C)NC(=O)CN)[C@@H](C)CC)[C@@H](C)O)[C@@H](C)CC)C(=O)N[C@@H](CC(C)C)C(N)=O (H-GLLKRIKTLLLINLKALAALAKKIL-NH2) |  |  |  |  |  | 16 (≈ 43.7 µg/mL) | 8 (≈ 21.8 µg/mL) | 35.6 | 8 (≈ 21.8 µg/mL) | 8 (≈ 21.8 µg/mL) |  |  |  |  |  |  | 
8 | CCCCCCCCCCCCCCCCC(=O)NCC(=O)N[C@@H](CC(C)C)C(=O)N[C@@H](CC(C)C)C(=O)N[C@@H](CCCCN)C(=O)N[C@@H](CCCNC(=N)N)C(=O)N[C@H](C(=O)N[C@@H](CCCCN)C(=O)N[C@H](C(=O)N[C@@H](CC(C)C)C(=O)N[C@@H](CC(C)C)C(=O)O)[C@@H](C)O)[C@@H](C)CC (Heptadecanoyl-GLLKRIKTLL-OH) |  |  |  |  |  |  |  |  |  |  |  |  |  |  |  |  | MIC [24]: 0.32 µM (≈ 0.45 µg/mL); MIC [25]: 0.32 µM (≈ 0.45 µg/mL); HC50 at 1 h [26]: 14.8 µM
9 | CC[C@H](C)[C@H](NC(=O)CCCCCNC(=O)[C@H](CC(C)C)NC(=O)[C@H](CC(C)C)NC(=O)[C@@H](NC(=O)[C@H](CCCCN)NC(=O)[C@@H](NC(=O)[C@H](CCCNC(=N)N)NC(=O)[C@H](CCCCN)NC(=O)[C@H](CC(C)C)NC(=O)[C@H](CC(C)C)NC(=O)CN)[C@@H](C)CC)[C@@H](C)O)C(=O)N[C@@H](CC(N)=O)C(=O)N[C@@H](CC(C)C)C(=O)N[C@@H](CCCCN)C(=O)N[C@@H](C)C(=O)N[C@@H](CC(C)C)C(=O)N[C@@H](C)C(=O)N[C@@H](C)C(=O)N[C@@H](CC(C)C)C(=O)N[C@@H](C)C(=O)N[C@@H](CCCCN)C(=O)N[C@@H](CCCCN)C(=O)N[C@H](C(=O)N[C@@H](CC(C)C)C(N)=O)[C@@H](C)CC |  |  |  |  |  | 2 (≈ 5.46 µg/mL) | 2 (≈ 5.46 µg/mL) | 60.2 | 2 (≈ 5.46 µg/mL) | 4 (≈ 10.9 µg/mL) |  |  |  |  |  |  | 
10 | CCCCCCCCC(=O)NCC(=O)N[C@@H](CC(C)C)C(=O)N[C@@H](CC(C)C)C(=O)N[C@@H](CCCCN)C(=O)N[C@@H](Cc1ccccc1)C(=O)N[C@H](C(=O)N[C@@H](CCCCN)C(=O)N[C@@H](CCCCN)C(=O)N[C@@H](CC(C)C)C(=O)N[C@@H](CC(C)C)C(N)=O)[C@@H](C)CC (Nonanoyl-GLLKFIKKLL-NH2) |  |  |  |  |  |  |  |  |  |  | < 386 | 3.86 (≈ 5.06 µg/mL) | 3.86 (≈ 5.06 µg/mL) | 8 (≈ 10.5 µg/mL) | 3.86 (≈ 5.06 µg/mL) | 23.1 (≈ 30.3 µg/mL) | 
